# Assay results from patent publication US20070027150A1 (priority 2005, published 2007).
# Biological target: His-tagged N-terminal ATP binding domain (amino acid residues 9-236) of HSP90α (Homo sapiens, UniProt P07900)
# Experiment: HSP90 inhibitor binding potency: TRF competition binding assay
# Conditions: Table II; read-out: Hsp90 IC50 Range
# Method in brief: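 Competition against biotinylated radicicol for binding to the His-tagged 9-236 ATP domain of HSP90α: 2 h, room temperature, HEPES/MgCl2/KCl/BSA buffer. Streptavidin capture, then europium-labeled anti-His antibody and enhancement solution; europium counts give IC50.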
row,SMILES,IC50
1,"Nc1ncc2c(n1)CC(c1ccccc1-c1cccc(F)n1)CC2=O (centres unmarked) [Compound 245, 2-amino-7-[2-(6-fluoro-pyridin-2-yl)-phenyl]-7,8-dihydro-6H-quinazolin-5-one]",< 1000 nM
2,"COc1cccc(-c2ccccc2C2CC(=O)c3cnc(N)nc3C2)n1 (centres unmarked) [Compound 246, 2-amino-7-[2-(6-methoxy-pyridin-2-yl)-phenyl]-7,8-dihydro-6H-quinazolin-5-one]",< 1000 nM
3,"Cc1nc(N)nc2c1C(=O)CC(c1ccccc1)C2C (centres unmarked) [Compound 247, 2-amino-4,8-dimethyl-7-phenyl-7,8-dihydro-6H-quinazolin-5-one]",1000 to 10000 nM
4,"Cc1nc(N)nc2c1C(=O)C(C)C(c1ccccc1)C2 (centres unmarked) [Compound 248, 2-amino-4,6-dimethyl-7-phenyl-7,8-dihydro-6H-quinazolin-5-one]",< 1000 nM
5,"Cc1nc(N)nc2c1C(=O)CC(c1ccc(Cl)cc1-c1cccnc1F)C2 (centres unmarked) [Compound 249, 2-amino-7-[4-chloro-2-(2-fluoro-pyridin-3-yl)-phenyl]-4-methyl-7,8-dihydro-6H-quinazolin-5-one]",< 1000 nM
6,"Cc1nc(N)nc2c1C(=O)CC(c1ccc(Cl)cc1-c1cncnc1)C2 (centres unmarked) [Compound 250, 2-amino-7-(4-chloro-2-pyrimidin-5-yl-phenyl)-4-methyl-7,8-dihydro-6H-quinazolin-5-one]",< 1000 nM
7,"COc1cccc(-c2cc(Cl)ccc2C2CC(=O)c3c(C)nc(N)nc3C2)n1 (centres unmarked) [Compound 251, 2-amino-7-[4-chloro-2-(6-methoxy-pyridin-2-yl)-phenyl]-4-methyl-7,8-dihydro-6H-quinazolin-5-one]",< 1000 nM
8,"COc1ccc(-c2cccc(OC)n2)c(C2CC(=O)c3c(C)nc(N)nc3C2)c1 (centres unmarked) [Compound 252, 2-amino-7-[5-methoxy-2-(6-methoxy-pyridin-2-yl)-phenyl]-4-methyl-7,8-dihydro-6H-quinazolin-5-one]",< 1000 nM
9,"COc1ccc(-c2cccnc2OC)c(C2CC(=O)c3c(C)nc(N)nc3C2)c1 (centres unmarked) [Compound 253, 2-amino-7-[5-methoxy-2-(2-methoxy-pyridin-3-yl)-phenyl]-4-methyl-7,8-dihydro-6H-quinazolin-5-one]",< 1000 nM
10,"COc1ccc(-c2cncc(OC)n2)c(C2CC(=O)c3c(C)nc(N)nc3C2)c1 (centres unmarked) [Compound 254, 2-amino-7-[5-methoxy-2-(6-methoxy-pyrazin-2-yl)-phenyl]-4-methyl-7,8-dihydro-6H-quinazolin-5-one]",< 1000 nM
11,"Cc1nc(N)nc2c1C(=O)CC(c1ccc(F)cc1OC1CCCC1)C2 (centres unmarked) [Compound 255, 2-amino-7-(2-cyclopentyloxy-4-fluoro-phenyl)-4-methyl-7,8-dihydro-6H-quinazolin-5-one]",< 1000 nM
12,"COc1cccc(-c2cc(F)c(C3CC(=O)c4c(C)nc(N)nc4C3)c(F)c2)n1 (centres unmarked) [Compound 256, 2-amino-7-[2,6-difluoro-4-(6-methoxy-pyridin-2-yl)-phenyl]-4-methyl-7,8-dihydro-6H-quinazolin-5-one]",> 10000 nM
13,"COc1ccnc(-c2cc(F)ccc2C2CC(=O)c3c(C)nc(N)nc3C2)n1 (centres unmarked) [Compound 257, 2-amino-7-[4-fluoro-2-(4-methoxy-pyrimidin-2-yl)-phenyl]-4-methyl-7,8-dihydro-6H-quinazolin-5-one]",< 1000 nM
14,"COc1nccc(-c2cc(F)ccc2C2CC(=O)c3c(C)nc(N)nc3C2)n1 (centres unmarked) [Compound 258, 2-amino-7-[4-fluoro-2-(2-methoxy-pyrimidin-4-yl)-phenyl]-4-methyl-7,8-dihydro-6H-quinazolin-5-one]",> 10000 nM
15,"COc1nc(-c2cc(F)ccc2C2CC(=O)c3c(C)nc(N)nc3C2)ncc1C (centres unmarked) [Compound 259, 2-amino-7-[4-fluoro-2-(4-methoxy-5-methyl-pyrimidin-2-yl)-phenyl]-4-methyl-7,8-dihydro-6H-quinazolin-5-one]",< 1000 nM
16,"COc1cccc(-c2cc(F)ccc2[C@H]2CC(=O)c3c(C)nc(N)nc3C2)n1 [Compound 260, (R)-2-amino-7-[4-fluoro-2-(6-methoxy-pyridin-2-yl)-phenyl]-4-methyl-7,8-dihydro-6H-quinazolin-5-one]",1000 to 10000 nM
17,"COc1cccc(-c2cc(F)ccc2[C@@H]2CC(=O)c3c(C)nc(N)nc3C2)n1 [Compound 261, (S)-2-amino-7-[4-fluoro-2-(6-methoxy-pyridin-2-yl)-phenyl]-4-methyl-7,8-dihydro-6H-quinazolin-5-one]",< 1000 nM
18,"Cc1nc(N)nc2c1C(=O)CC(c1ccc(F)cc1OCCC1CC1)C2 (centres unmarked) [Compound 262, 2-amino-7-[2-(2-cyclopropyl-ethoxy)-4-fluoro-phenyl]-4-methyl-7,8-dihydro-6H-quinazolin-5-one]",< 1000 nM
19,"Cc1nc(N)nc2c1C(=O)CC(c1ccc(F)cc1OCC1CCCC1)C2 (centres unmarked) [Compound 263, 2-amino-7-(2-cyclopentylmethoxy-4-fluoro-phenyl)-4-methyl-7,8-dihydro-6H-quinazolin-5-one]",< 1000 nM

row,SMILES,IC50
1,"Cc1nc(N)nc2c1C(=O)CC(c1ccc(F)cc1-c1cccc(O)n1)C2 (centres unmarked) [Compound 264, 2-amino-7-[4-fluoro-2-(6-hydroxy-pyridin-2-yl)-phenyl]-4-methyl-7,8-dihydro-6H-quinazolin-5-one]",1000 to 10000 nM
2,"Cc1nc(N)nc2c1C(=O)CC(c1ccc(F)cc1OCc1ccccc1)C2 (centres unmarked) [Compound 265, 2-amino-7-(2-benzyloxy-4-fluoro-phenyl)-4-methyl-7,8-dihydro-6H-quinazolin-5-one]",1000 to 10000 nM
3,"Cc1nc(N)nc2c1C(=O)CC(c1ccc(F)cc1OCC(C)C)C2 (centres unmarked) [Compound 266, 2-amino-7-(4-fluoro-2-isobutoxy-phenyl)-4-methyl-7,8-dihydro-6H-quinazolin-5-one]",< 1000 nM
4,"CCC(CC)Oc1cc(F)ccc1C1CC(=O)c2c(C)nc(N)nc2C1 (centres unmarked) [Compound 267, 2-amino-7-[2-(1-ethyl-propoxy)-4-fluoro-phenyl]-4-methyl-7,8-dihydro-6H-quinazolin-5-one]",< 1000 nM
5,"Cc1nc(N)nc2c1C(=O)CC(c1ccc(F)cc1OC1CCCC1C)C2 (centres unmarked) [Compound 268, 2-amino-7-[4-fluoro-2-(2-methyl-cyclopentyloxy)-phenyl]-4-methyl-7,8-dihydro-6H-quinazolin-5-one]",< 1000 nM
6,"Cc1nc(N)nc2c1C(=O)CC(c1ccc(F)cc1-c1cnc(N)nc1)C2 (centres unmarked) [Compound 269, 2-amino-7-[2-(2-amino-pyrimidin-5-yl)-4-fluoro-phenyl]-4-methyl-7,8-dihydro-6H-quinazolin-5-one]",1000 to 10000 nM
7,"Cc1nc(N)nc2c1C(=O)CC(c1ccc(F)cc1-c1ncc(C(F)(F)F)cn1)C2 (centres unmarked) [Compound 270, 2-amino-7-[4-fluoro-2-(5-trifluoromethyl-pyrimidin-2-yl)-phenyl]-4-methyl-7,8-dihydro-6H-quinazolin-5-one]",< 1000 nM
8,"COc1nc(-c2cc(F)ccc2C2CC(=O)c3c(C)nc(N)nc3C2)ncc1Cl (centres unmarked) [Compound 272, 2-amino-7-[2-(5-chloro-4-methoxy-pyrimidin-2-yl)-4-fluoro-phenyl]-4-methyl-7,8-dihydro-6H-quinazolin-5-one]",< 1000 nM
9,"COc1nc(Cl)ncc1-c1cc(F)ccc1C1CC(=O)c2c(C)nc(N)nc2C1 (centres unmarked) [Compound 273, 2-amino-7-[2-(2-chloro-4-methoxy-pyrimidin-5-yl)-4-fluoro-phenyl]-4-methyl-7,8-dihydro-6H-quinazolin-5-one]",< 1000 nM
10,"COc1nc(-c2cc(F)ccc2[C@H]2CC(=O)c3c(C)nc(N)nc3C2)ncc1C [Compound 274, (R)-2-amino-7-[4-fluoro-2-(4-methoxy-5-methyl-pyrimidin-2-yl)-phenyl]-4-methyl-7,8-dihydro-6H-quinazolin-5-one]",< 1000 nM
11,"COc1nc(-c2cc(F)ccc2[C@@H]2CC(=O)c3c(C)nc(N)nc3C2)ncc1C [Compound 275, (S)-2-amino-7-[4-fluoro-2-(4-methoxy-5-methyl-pyrimidin-2-yl)-phenyl]-4-methyl-7,8-dihydro-6H-quinazolin-5-one]",< 1000 nM
12,"COc1cnc(-c2cc(F)ccc2C2CC(=O)c3c(C)nc(N)nc3C2)nc1OC (centres unmarked) [Compound 276, 2-amino-7-[2-(4,5-dimethoxy-pyrimidin-2-yl)-4-fluoro-phenyl]-4-methyl-7,8-dihydro-6H-quinazolin-5-one]",< 1000 nM
13,"Nc1ncc2c(n1)CC(c1ccc(F)cc1-c1cccnc1F)CC2=O (centres unmarked) [Compound 277, 2-amino-7-[4-fluoro-2-(2-fluoro-pyridin-3-yl)-phenyl]-7,8-dihydro-6H-quinazolin-5-one]",< 1000 nM
14,"COc1ncncc1-c1cc(F)ccc1C1CC(=O)c2c(C)nc(N)nc2C1 (centres unmarked) [Compound 278, 2-amino-7-[4-fluoro-2-(4-methoxy-pyrimidin-5-yl)-phenyl]-4-methyl-7,8-dihydro-6H-quinazolin-5-one]",< 1000 nM
15,"Cc1nc(N)nc2c1C(=O)CC(c1ccc(F)cc1-c1cccc(C(F)(F)F)n1)C2 (centres unmarked) [Compound 279, 2-amino-7-[4-fluoro-2-(6-trifluoromethyl-pyridin-2-yl)-phenyl]-4-methyl-7,8-dihydro-6H-quinazolin-5-one]",< 1000 nM
16,"Cc1nc(N)nc2c1C(=O)CC(c1ccc(F)cc1-c1nccnc1NCCO)C2 (centres unmarked) [Compound 280, 2-amino-7-{4-fluoro-2-[3-(2-hydroxy-ethylamino)-pyrazin-2-yl]-phenyl}-4-methyl-7,8-dihydro-6H-quinazolin-5-one]",1000 to 10000 nM
17,"COc1nccnc1-c1cc(F)ccc1C1CC(=O)c2c(C)nc(N)nc2C1 (centres unmarked) [Compound 281, 2-amino-7-[4-fluoro-2-(3-methoxy-pyrazin-2-yl)-phenyl]-4-methyl-7,8-dihydro-6H-quinazolin-5-one]",< 1000 nM
18,"CCOc1ncncc1-c1cc(F)ccc1C1CC(=O)c2c(C)nc(N)nc2C1 (centres unmarked) [Compound 282, 2-amino-7-[2-(4-ethoxy-pyrimidin-5-yl)-4-fluoro-phenyl]-4-methyl-7,8-dihydro-6H-quinazolin-5-one]",< 1000 nM
19,"COc1cccc(-c2ccc(F)cc2C2CC(=O)c3c(C)nc(N)nc3C2)n1 (centres unmarked) [Compound 283, 2-amino-7-[5-fluoro-2-(6-methoxy-pyridin-2-yl)-phenyl]-4-methyl-7,8-dihydro-6H-quinazolin-5-one]",< 1000 nM
